Data as given in patent publication US6723699B1, “Treating disorders by application of insulin-like growth factors and analogs” (Cephalon, Inc., priority 1989, dated 2004).

How the values were obtained:
[1] = test system: 125I-[Threonine59]IGF-I binding to brain tissue sections; assay: 125I-[Threonine59]IGF-I binding displacement on rat brain tissue sections
Method: Brains were removed intact from adult Sprague-Dawley rats, frozen on powdered dry ice, and cut into 20 μm sections (at the level of the cerebellum and brain stem) which were
thaw-mounted onto gelatin-coated glass microscope slides (Herkenham and Pert, J. Neurosci. 2:1129-1149 (1982)). Using a modification of the method of Bohannon et al. (1986), the tissue sections were covered with 250 μl of HEPES assay buffer (see Example 1) containing 0.01 nM ^125I-[Threonine^59]IGF-I alone or in combination with unlabeled IGF-I, IGF-II, or synthetic peptide fragments thereof. The sections were incubated at 4° C. for 24 hours and then rinsed in three 1-minute changes (200 ml each) of ice-cold HEPES assay buffer. The tissue sections were then wiped off the slides with filter paper, and the tissue-bound radioactivity was measured in a Beckman Model 5500B Gamma Counter.

[2] = test system: 14-day embryonic rat spinal cord neurons; assay: Choline acetyltransferase activity in dissociated embryonic rat spinal cord neuron cultures; format: cell-based; settings: 48 hr incubation
Method: The activity of IGF-I, IGF-II, or synthetic peptide derivatives of these molecules was assayed on dissociated cultures of 14-day embryonic rat spinal cord neurons. The spinal cord neurons were obtained from trypsin-dissociated spinal cords, plated, incubated with peptides, and subsequently (48 hr later) assayed for choline acetyltransferase activity as described by […] et al., Dev. Biol. 125:311-320 (1988).

[3] = test system: brain ornithine decarboxylase; assay: Induction of brain ornithine decarboxylase after intraventricular injection, adult rats; format: in vivo, rat; settings: 6 hours, cerebral cortex, medial septum, hippocampus
Method: To determine whether the induction of brain ornithine decarboxylase by IGF-I was limited to developing animals, IGF-I was also injected intraventricularly into the lateral ventricles of adult Sprague-Dawley rats. After 6 hours, the brains were removed, dissected into several regions (cerebral cortex, medial septum, and hippocampus), and then assayed for ornithine decarboxylase activity as described in Example 4.

[4] = test system: fetal rat cortical neuronal cultures; assay: Fetal rat cortical neuron survival by [3H]leucine incorporation; format: cell-based
Method: The neuronal survival promoting activity of IGF-I and IGF-II was assayed on fetal rat cortical neuranal cultures. Cerebral cortices were removed from embryonic day 18 fetal rats. Cortices were minced and treated with neutral protease (Dispase, Collaborative Research) to yield dissociated cell preparations. Cells were plated at low density (5×10^3 cells/well) onto poly-L-ornithine and laminin coated ½ area 96 well plates in 50 μl of serum and insulin-free N2 medium containing 0.05% BSA and 50 μM leucine. IGF-I or II were present from time of seeding. Control cultures received no growth factor. Cultures were incubated for 24 hr at 37° C. in an atmosphere of 5% CO2, 95% air. After 24 hrs, [^3H]leucine was added in an additional 50 μl of modified N2 medium to a final concentration of 12.5 μCi/ml. Twenty-four hours after the addition of [^3H]leucine, cultures were harvested, protein precipitated on filters with 10% trichloroacetic acid, and dried filters counted in a liquid scintillation counter. The incorporation of [^3H]leucine into cells is an accurate reflection of cell survival, since incorporated [^3H]leucine counts correlated directly with the number of surviving cells as measured by microscopic counts of cells in identical cultures.

[5] = molecular target: T1, IGF-I receptor (Rattus norvegicus, UniProt P24062); assay: 125I-[Threonine59]IGF-I displacement (IGF-I receptor competition) assay, rat brain homogenate; format: binding
T1 construct: Brain tissue containing the cerebral cortex and cerebellum was dissected from adult Sprague-Dawley rats; from tissue; host or cells: adult Sprague-Dawley rat brain (cerebral cortex and cerebellum), homogenate pellet
T1 sequence (P24062 31-737 limits assumed): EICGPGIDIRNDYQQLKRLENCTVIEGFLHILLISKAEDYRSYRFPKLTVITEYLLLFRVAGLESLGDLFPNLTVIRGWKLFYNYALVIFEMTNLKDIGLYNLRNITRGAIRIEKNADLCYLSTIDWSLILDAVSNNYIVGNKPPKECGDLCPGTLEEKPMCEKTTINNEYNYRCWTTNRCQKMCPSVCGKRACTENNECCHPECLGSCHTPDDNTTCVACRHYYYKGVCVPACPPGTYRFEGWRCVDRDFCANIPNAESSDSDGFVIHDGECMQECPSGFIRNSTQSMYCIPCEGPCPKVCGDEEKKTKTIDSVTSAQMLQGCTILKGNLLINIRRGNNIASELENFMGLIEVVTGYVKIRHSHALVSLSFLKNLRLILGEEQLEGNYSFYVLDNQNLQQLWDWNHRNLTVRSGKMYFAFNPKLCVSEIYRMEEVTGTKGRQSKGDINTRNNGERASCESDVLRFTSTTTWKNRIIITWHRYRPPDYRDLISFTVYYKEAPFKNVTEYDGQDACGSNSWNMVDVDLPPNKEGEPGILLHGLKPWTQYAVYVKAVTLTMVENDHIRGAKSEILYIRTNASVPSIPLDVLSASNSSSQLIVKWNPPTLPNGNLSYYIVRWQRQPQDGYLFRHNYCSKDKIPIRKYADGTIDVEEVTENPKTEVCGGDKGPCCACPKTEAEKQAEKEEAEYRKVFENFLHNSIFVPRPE
T1 sequence (P24062 742-1370 partner limits assumed): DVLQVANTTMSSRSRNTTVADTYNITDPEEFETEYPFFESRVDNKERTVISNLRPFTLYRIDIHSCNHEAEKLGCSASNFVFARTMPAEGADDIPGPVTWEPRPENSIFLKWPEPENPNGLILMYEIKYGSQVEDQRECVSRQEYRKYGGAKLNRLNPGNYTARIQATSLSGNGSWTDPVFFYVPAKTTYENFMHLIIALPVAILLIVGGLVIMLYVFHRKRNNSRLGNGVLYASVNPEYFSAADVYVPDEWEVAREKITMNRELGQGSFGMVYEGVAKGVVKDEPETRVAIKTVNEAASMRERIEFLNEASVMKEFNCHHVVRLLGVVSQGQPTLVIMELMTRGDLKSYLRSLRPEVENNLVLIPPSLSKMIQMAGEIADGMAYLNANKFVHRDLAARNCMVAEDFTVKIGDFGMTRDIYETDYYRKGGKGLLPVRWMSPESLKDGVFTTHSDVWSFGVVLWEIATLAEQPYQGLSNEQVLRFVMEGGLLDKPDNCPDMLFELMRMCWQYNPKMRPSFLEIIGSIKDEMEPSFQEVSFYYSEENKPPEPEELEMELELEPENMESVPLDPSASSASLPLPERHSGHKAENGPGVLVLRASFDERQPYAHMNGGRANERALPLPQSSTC
Method: Brain tissue containing the cerebral cortex and cerebellum was dissected from adult Sprague-Dawley rats (Hilltop Lab Animals, Inc. Scottsdale, Pa.) and homogenized at low power for 5 minutes in a Brinkmann Polytron homogenizer (Westbury, N.Y.) containing 50 volumes of ice-cold buffer consisting of 10 mM HEPES, 0.5% BSA, 0.0125% NEM, 0.025% bacitracin, and 100 KIU/ml aprotinin, pH 7.6 (Bohannon et al., Endocrinology 119:943-945 (1986). Following homogenization, the tissue was collected after centrifugation at 7800×g for 20 minutes and resuspended in 10 volumes of assay buffer. Tissue (50 μl), 100 μl ^125I-[Threonine^59]IGF-I (20 pM), and 50 μl of buffer or peptides of varying concentration were added to 96-well plates and incubated on ice for 3 hours. After the incubation period, the tissue was collected on Whatman GF/C filters that had been pre-soaked in 0.01% polyethylenimine and washed four times with ice-cold assay buffer using a Brandel cell harvester (Gaithersburg, Md.). The filters were removed and the bound ^125I-[Threonine 59]IGF-I was measured using a Beckman Model 5500B Gamma Counter.

[6] = test system: motoneurons; assay: Motoneuron survival in ovo (developmentally regulated motoneuron death); format: in vivo, chick; settings: 5 μg/egg daily onto chorioallantoic membrane, E6 to E9, counted E10
From the text: In the spinal cord, as well as in other regions of the nervous system, neurons are over-produced during development, and undergo a process of naturally occurring cell death prior to […] (reviewed in Oppenheim, R. W. 1991, Annu Rev. Neurosci. 14:453-501). During this period, approximately 50% of the motoneurons degenerate and die. Certain neurotrophic agents applied exogenously during this period prevent or retard this form of neuronal death (e.g., partially purified muscle extracts and ciliary neurotrophic factor reduce motor neuron death in chick embryos (McManaman et al., 1990, Neuron 4:891-898; Oppenheim et al. 1991, Science 25:1616-1617).
The IGFs were administered daily onto chorioallantoic membrane (5 μg/egg in a volume of 50 μl) from embryonic day E6 to E9 through a small window cut into the shell of the egg. Control embryos received an equal volume of vehicle (phosphate buffered saline) alone on E10, the embryos were removed, sacrificed and the spinal cords sectioned. Motoneurons (identified morphologically in silver-stained sections) were counted in serial sections from both treated and control embryos. […] The differences between effects produced by the different IGFs used were not statistically significant (Student t test […]).

GPETLCGAELVDALQFVCGDRGFYFNKPTGYGSSS-RRAPQTGIVDECCFRSCDLRRLEMYCAPLKPAKSA [IGF-I]
PERCENT MAX. BOUND ([1]; peptide 4 pM, 0.01 nM 125I-[Thr59]IGF-I): 91% | PERCENT MAX. BOUND ([1]; peptide 400 pM): 30% | displacement of 125I-[Threonine59]IGF-I binding (in words) ([1]; rat brain sections): potently displaced | choline acetyltransferase activity (in words) [2]: substantial, dose-dependent increase in choline acetyltransferase activity | ornithine decarboxylase activity (in words) [3]: stimulated ornithine decarboxylase activity in all brain regions assayed | relative potency in promoting survival of cortical neurons (in words) ([4]; IGF-I versus IGF-II): slightly more potent | survival of cortical neurons (in words) ([4]; [3H]leucine incorporation, 48 hr): promoted the survival of cortical neurons | PERCENT MAX. BOUND ([5]; peptide 10 pM, 20 pM 125I-[Thr59]IGF-I): 100% | PERCENT MAX. BOUND ([5]; peptide 40 nM): 9.6% | displacement of 125I-[Threonine59]IGF-I (in words) ([5]; rat brain homogenate): potent displacers | prevention of developmentally regulated motoneuron death (in words) [6]: partially prevented developmentally regulated motoneuron death
